Read-outs that look alike come from different tables or passages of the source.
Tests used:
[1] = tested on: ARE gene family (AKR1B10, AKR1C1, AKR1C2, CYP1B1, FTH1P, FTL, G6PD, GCLM, NQO2, SLC7A11, TXNRD1, UGT1A1, UGT1A9, YWHAZ, CD36, CYP1A1, GCLC, HMOX1, NQO1, PSME2 …)
[2] = tested on: EPISKIN model
Description: “Sensitizing power” means the ability of a given compound to induce a sensitization reaction according to the concentration of said compound. Sensitizing power is dependent on the quantity of substance necessary to induce sensitization. Thus, the lower the sensitizing quantity necessary to induce a sensitizing response, the stronger the sensitizer is, and vice versa, the higher the sensitizing quantity necessary to induce a sensitizing response, the weaker the sensitizer is.
Thus, steps 1) and 2) will be done for each of the dilutions.

Nc1ccccc1O [2-aminophenol]
S100A8 expression compared to control ([1]; 1%): 1.2
S100A8 grade (NUMBER OF GENES) ([1]; 1%): 0 (if this expression is lower, the grade is 0)
SLC7A11 expression compared to control ([1]; 1%): 3.2
SLC7A11 grade (NUMBER OF GENES) ([1]; 1%): 1 (If the expression is greater than 1.3 compared to the control, a grade of 11s given)
TOTAL ARE (NUMBER OF GENES) ([1]; 1%): 10
TXNRD1 expression compared to control ([1]; 1%): 4.8
TXNRD1 grade (NUMBER OF GENES) ([1]; 1%): 1 (If the expression is greater than 1.3 compared to the control, a grade of 11s given)
UGT1A1 expression compared to control ([1]; 1%): 1.6
UGT1A1 grade (NUMBER OF GENES) ([1]; 1%): 1 (If the expression is greater than 1.3 compared to the control, a grade of 11s given)
UGT1A9 expression compared to control ([1]; 1%): 1.0
UGT1A9 grade (NUMBER OF GENES) ([1]; 1%): 0 (if this expression is lower, the grade is 0)
AHR expression compared to control ([1]; 10%): 0.7
AHR grade (NUMBER OF GENES) ([1]; 10%): 0 (if this expression is lower, the grade is 0)
AKR1B10 expression compared to control ([1]; 10%): 1.1
AKR1B10 grade (NUMBER OF GENES) ([1]; 10%): 0 (if this expression is lower, the grade is 0)
AKR1C1 expression compared to control ([1]; 10%): 9.3
AKR1C1 grade (NUMBER OF GENES) ([1]; 10%): 1 (If the expression is greater than 1.3 compared to the control, a grade of 11s given)
AKR1C2 expression compared to control ([1]; 10%): 3.4
AKR1C2 grade (NUMBER OF GENES) ([1]; 10%): 1 (If the expression is greater than 1.3 compared to the control, a grade of 11s given)
ARE >1.3 (NUMBER OF GENES) ([1]; 10%): 14
CD36 expression compared to control ([1]; 10%): 0.5
CD36 grade (NUMBER OF GENES) ([1]; 10%): 0 (if this expression is lower, the grade is 0)
CYP1A1 expression compared to control ([1]; 10%): 122.0
CYP1A1 grade (NUMBER OF GENES) ([1]; 10%): 1 (If the expression is greater than 1.3 compared to the control, a grade of 11s given)
CYP1B1 expression compared to control ([1]; 10%): 45.1
CYP1B1 grade (NUMBER OF GENES) ([1]; 10%): 1 (If the expression is greater than 1.3 compared to the control, a grade of 11s given)
FTH1P expression compared to control ([1]; 10%): 1.5
FTH1P grade (NUMBER OF GENES) ([1]; 10%): 1 (If the expression is greater than 1.3 compared to the control, a grade of 11s given)
FTL expression compared to control ([1]; 10%): 2.5
FTL grade (NUMBER OF GENES) ([1]; 10%): 1 (If the expression is greater than 1.3 compared to the control, a grade of 11s given)
GCLC expression compared to control ([1]; 10%): 2.3
GCLC grade (NUMBER OF GENES) ([1]; 10%): 1 (If the expression is greater than 1.3 compared to the control, a grade of 11s given)
GCLM expression compared to control ([1]; 10%): 4.6
GCLM grade (NUMBER OF GENES) ([1]; 10%): 1 (If the expression is greater than 1.3 compared to the control, a grade of 11s given)
HMOX1 expression compared to control ([1]; 10%): 1.7
HMOX1 grade (NUMBER OF GENES) ([1]; 10%): 1 (If the expression is greater than 1.3 compared to the control, a grade of 11s given)
NQO1 expression compared to control ([1]; 10%): 2.5
NQO1 grade (NUMBER OF GENES) ([1]; 10%): 1 (If the expression is greater than 1.3 compared to the control, a grade of 11s given)
NQO2 expression compared to control ([1]; 10%): 1.4
NQO2 grade (NUMBER OF GENES) ([1]; 10%): 1 (If the expression is greater than 1.3 compared to the control, a grade of 11s given)
S100A8 expression compared to control ([1]; 10%): 1.2
S100A8 grade (NUMBER OF GENES) ([1]; 10%): 0 (if this expression is lower, the grade is 0)
SLC7A11 expression compared to control ([1]; 10%): 3.8
SLC7A11 grade (NUMBER OF GENES) ([1]; 10%): 1 (If the expression is greater than 1.3 compared to the control, a grade of 11s given)
TOTAL ARE (NUMBER OF GENES) ([1]; 10%): 14
TXNRD1 expression compared to control ([1]; 10%): 7.6
TXNRD1 grade (NUMBER OF GENES) ([1]; 10%): 1 (If the expression is greater than 1.3 compared to the control, a grade of 11s given)
UGT1A1 expression compared to control ([1]; 10%): 1.8
UGT1A1 grade (NUMBER OF GENES) ([1]; 10%): 1 (If the expression is greater than 1.3 compared to the control, a grade of 11s given)
UGT1A9 expression compared to control ([1]; 10%): 1.2
UGT1A9 grade (NUMBER OF GENES) ([1]; 10%): 0 (if this expression is lower, the grade is 0)
AHR expression compared to control ([1]; 50%): 1.3
AHR grade (NUMBER OF GENES) ([1]; 50%): 0 (if this expression is lower, the grade is 0)
AKR1B10 expression compared to control ([1]; 50%): 1.3
AKR1B10 grade (NUMBER OF GENES) ([1]; 50%): 1 (If the expression is greater than 1.3 compared to the control, a grade of 11s given)
AKR1C1 expression compared to control ([1]; 50%): 8.6
AKR1C1 grade (NUMBER OF GENES) ([1]; 50%): 1 (If the expression is greater than 1.3 compared to the control, a grade of 11s given)
AKR1C2 expression compared to control ([1]; 50%): 3.3
AKR1C2 grade (NUMBER OF GENES) ([1]; 50%): 1 (If the expression is greater than 1.3 compared to the control, a grade of 11s given)
ARE >1.3 (NUMBER OF GENES) ([1]; 50%): 14
CD36 expression compared to control ([1]; 50%): 0.7
CD36 grade (NUMBER OF GENES) ([1]; 50%): 0 (if this expression is lower, the grade is 0)
CYP1A1 expression compared to control ([1]; 50%): 66.5
CYP1A1 grade (NUMBER OF GENES) ([1]; 50%): 1 (If the expression is greater than 1.3 compared to the control, a grade of 11s given)
CYP1B1 expression compared to control ([1]; 50%): 37.7
CYP1B1 grade (NUMBER OF GENES) ([1]; 50%): 1 (If the expression is greater than 1.3 compared to the control, a grade of 11s given)
FTH1P expression compared to control ([1]; 50%): 2.0
FTH1P grade (NUMBER OF GENES) ([1]; 50%): 1 (If the expression is greater than 1.3 compared to the control, a grade of 11s given)
FTL expression compared to control ([1]; 50%): 3.5
FTL grade (NUMBER OF GENES) ([1]; 50%): 1 (If the expression is greater than 1.3 compared to the control, a grade of 11s given)
GCLC expression compared to control ([1]; 50%): 4.0
GCLC grade (NUMBER OF GENES) ([1]; 50%): 1 (If the expression is greater than 1.3 compared to the control, a grade of 11s given)
GCLM expression compared to control ([1]; 50%): 4.7
GCLM grade (NUMBER OF GENES) ([1]; 50%): 1 (If the expression is greater than 1.3 compared to the control, a grade of 11s given)
HMOX1 expression compared to control ([1]; 50%): 1.9
HMOX1 grade (NUMBER OF GENES) ([1]; 50%): 1 (If the expression is greater than 1.3 compared to the control, a grade of 11s given)
NQO1 expression compared to control ([1]; 50%): 3.3
NQO1 grade (NUMBER OF GENES) ([1]; 50%): 1 (If the expression is greater than 1.3 compared to the control, a grade of 11s given)
NQO2 expression compared to control ([1]; 50%): 1.3
NQO2 grade (NUMBER OF GENES) ([1]; 50%): 0 (if this expression is lower, the grade is 0)
S100A8 expression compared to control ([1]; 50%): 1.3
S100A8 grade (NUMBER OF GENES) ([1]; 50%): 1 (If the expression is greater than 1.3 compared to the control, a grade of 11s given)
SLC7A11 expression compared to control ([1]; 50%): 6.0
SLC7A11 grade (NUMBER OF GENES) ([1]; 50%): 1 (If the expression is greater than 1.3 compared to the control, a grade of 11s given)
TOTAL ARE (NUMBER OF GENES) ([1]; 50%): 14
TXNRD1 expression compared to control ([1]; 50%): 6.4
TXNRD1 grade (NUMBER OF GENES) ([1]; 50%): 1 (If the expression is greater than 1.3 compared to the control, a grade of 11s given)
UGT1A1 expression compared to control ([1]; 50%): 2.1
UGT1A1 grade (NUMBER OF GENES) ([1]; 50%): 1 (If the expression is greater than 1.3 compared to the control, a grade of 11s given)
UGT1A9 expression compared to control ([1]; 50%): 0.4
UGT1A9 grade (NUMBER OF GENES) ([1]; 50%): 0 (if this expression is lower, the grade is 0)
sensitizing power (class) [2]: STRONG

Reference: patent US9255295B2, “Method for evaluating the sensitizing potential of a test compound” (IMMUNOSEARCH, priority 2010, dated 2016)
